Test results: ChEMBL document CHEMBL3244087, “Ergoline congeners as potential inhibitors of prolactin release. 3. Derivatives of 3-phenylpiperidine” (1977)

What was measured:
Rattus norvegicus [1] = assay: Inhibition of prolactin release in reserpinized rat assessed as reduction in serum prolactin level at 2 mg, ip after 1 hr post dose by radioimmunoassay relative to untreated control; type: functional
Rattus norvegicus [2] = assay: Inhibition of prolactin release in reserpinized rat assessed as reduction in serum prolactin level at 1 mg, ip after 1 hr post dose by radioimmunoassay relative to untreated control; type: functional

SMILES	inhibition (INH) (Rattus norvegicus [1])	inhibition (INH) (Rattus norvegicus [2])
COc1cc(C2CC(CC#N)CN(C)C2)c(OC)cc1C (stereo unspecified)	-13%	
CCOC(=O)C1CN(C)CC(c2cc(OC)c(C)cc2OC)C1=O (stereo unspecified)		22%
CCOC(=O)C1=CC(c2cc(OC)c(C)cc2OC)CN(C)C1 (stereo unspecified)	-5%	
CCOC(=O)C1CC(c2cc(OC)c(C)cc2OC)CN(C)C1 (stereo unspecified)	5%	
COc1cc(C2CC(CO)CN(C)C2)c(OC)cc1C (stereo unspecified)	-2%	
CN1CCc2cccc3c2[C@H]1Cc1ccc(O)c(O)c1-3 [APOMORPHINE]		29%
